Test results: PubChem BioAssay (NCI)
Several values for one entry are separate records, joined by “and”; a condition that tells them apart may be missing. Identical values can stand only once.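 Cells were grown in 96-well plates and exposed to each compound for 48 hours at five concentrations; endpoints were interpolated linearly between bracketing concentrations, or set to the highest concentration if not reached. At the GI50, growth is halved. TGI is the concentration that stops growth completely.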

Tests used:
Test in all cases: NCI anticancer screen, dose series, 48 h
LOX IMVI melanoma = tested on: LOX IMVI melanoma
UACC-257 melanoma = tested on: UACC-257 melanoma
HCC-2998 colon = tested on: HCC-2998 colon
HT29 colon = tested on: HT29 colon
BT-549 breast = tested on: BT-549 breast
COLO 205 colon = tested on: COLO 205 colon
K-562 leukemia = tested on: K-562 leukemia
MDA-MB-435 = tested on: MDA-MB-435
SF-539 CNS = tested on: SF-539 CNS
NCI-H23 lung = tested on: NCI-H23 lung

SMILES	GI50 (LOX IMVI melanoma)	TGI (LOX IMVI melanoma)	GI50 (UACC-257 melanoma)	TGI (UACC-257 melanoma)	GI50 (HCC-2998 colon)	TGI (HCC-2998 colon)	GI50 (HT29 colon)	TGI (HT29 colon)	GI50 (BT-549 breast)	TGI (BT-549 breast)	GI50 (COLO 205 colon)	TGI (COLO 205 colon)	GI50 (K-562 leukemia)	TGI (K-562 leukemia)	GI50 (MDA-MB-435)	TGI (MDA-MB-435)	GI50 (SF-539 CNS)	TGI (SF-539 CNS)	GI50 (NCI-H23 lung)	TGI (NCI-H23 lung)
O=C(Nc1nn2c(-c3cc(C(F)(F)F)cc(C(F)(F)F)c3)nnc2s1)C1CCCC1	0.807 µM	> 100 µM	0.419 µM	3.49 µM	0.685 µM	> 100 µM	1.11 µM	> 32.5 µM	0.796 µM	> 74.7 µM	1.49 µM	2.86 µM	0.488 µM	> 100 µM	0.424 µM	> 39.8 µM	0.981 µM	> 100 µM	0.394 µM	> 100 µM
O=[N+]([O-])c1cc([N+](=O)[O-])c(C(F)(F)F)cc1NN=C(c1ccc(O)cc1)c1ccc(O)cc1	1.57 µM	3.21 µM	4.29 µM	17.5 µM	3.2 µM	8.58 µM	3.33 µM	12.1 µM	5 µM	42.8 µM	2.15 µM	5.33 µM	2.42 µM	15.7 µM	1.92 µM	4.92 µM	2.01 µM	4.45 µM	4.23 µM	31 µM
CCNC(=O)C#Cc1ccc2c(C(=Nc3ccc(CN(C)C)cc3)c3ccccc3)c(O)[nH]c2c1	0.0067 µM	0.163 µM	0.0216 µM	0.114 µM	0.106 µM	0.696 µM	0.013 µM	1.39 µM	1.51 µM	> 10 µM	0.00363 µM	0.0711 µM	0.344 µM	3.92 µM	0.0127 µM	2.51 µM	0.121 µM	1.27 µM	0.0614 µM	> 4.28 µM
C=CC(=O)Nc1cc(Nc2nccc(-c3cn(C)c4ccccc34)n2)c(OC)cc1N(C)CCN(C)C	1.75 µM and 1.41 µM	3.55 µM and 2.86 µM	1.71 µM and 1.8 µM	3.27 µM and 3.37 µM	1.56 µM and 1.48 µM	3.37 µM and 2.98 µM	1.84 µM and 1.51 µM	4.07 µM and 3.24 µM	3.52 µM and 2.95 µM	12.8 µM and > 10 µM	1.62 µM and 1.43 µM	3.14 µM and 2.99 µM	1.73 µM and 0.349 µM	5.2 µM and 1.73 µM	1.62 µM and 1.64 µM	3.03 µM and 3.14 µM	1.7 µM and 1.63 µM	3.29 µM and 3.16 µM	4.76 µM and 3.39 µM	17.9 µM and > 10 µM
COc1cc2c(cc1OC)C(Cl)C(c1ccc(F)cc1)=C2Cl (centres undefined)	–	27.7 µM	–	28.8 µM	–	28.5 µM	–	32.5 µM	–	15.6 µM	–	31 µM	–	44.6 µM	–	23.6 µM	–	30.4 µM	–	16.5 µM
COc1ccccc1NC(=O)c1cc2cc(Br)ccc2cc1O	2.69 µM	8.8 µM	1.97 µM	5.3 µM	3.21 µM	11.8 µM	7.73 µM	21.5 µM	2.15 µM	6.12 µM	4 µM	15.8 µM	2.37 µM	> 100 µM	2.35 µM	8.58 µM	2.34 µM	7.34 µM	2.19 µM	8.71 µM
O=C(O)C(Cl)Cl	7490 µM and > 10000 µM	> 10000 µM	> 10000 µM	> 10000 µM	> 10000 µM	> 10000 µM	7200 µM and > 10000 µM	> 10000 µM	2780 µM and > 8920 µM	> 10000 µM	> 10000 µM	> 10000 µM	6300 µM and > 10000 µM	> 10000 µM	5460 µM and > 10000 µM	> 10000 µM	> 10000 µM	> 10000 µM	> 10000 µM	> 10000 µM
O=C1c2c(F)c(F)c(F)c(F)c2C(=O)N1c1ccc(F)cc1F	1.5 µM	5.11 µM	21.8 µM	57.2 µM	11.2 µM	23.2 µM	7.36 µM	> 100 µM	11.9 µM	28 µM	10.9 µM	35.7 µM	2.58 µM	> 33.9 µM	13.9 µM	38.3 µM	2.78 µM	7.27 µM	3.82 µM	9.82 µM
COc1ccc(CN2C(=O)C(Cl)=C(Nc3cccc(C(F)(F)F)c3)C2=O)cc1	3.08 µM	14.1 µM	11.1 µM	27.6 µM	8.46 µM	25.9 µM	4.55 µM	19.7 µM	1.58 µM	14.8 µM	5.07 µM	18.8 µM	3.26 µM	51.5 µM	2.77 µM	9.12 µM	1.77 µM	12 µM	8.08 µM	42.4 µM
C/C=C/[C@@H]1O[C@@H]2COC(=O)C2=C[C@@H]1O	17.5 µM	36.1 µM	21 µM	36.9 µM	24.1 µM	48.8 µM	5.73 µM	46 µM	3.59 µM	15.2 µM	2.78 µM	> 19.6 µM	2.53 µM	–	18.8 µM	37.3 µM	2.78 µM	8.14 µM	14.1 µM	37.3 µM
CN1CCN(c2ccc(Nc3ncc(Cl)c(NC[C@@H]4CCCO4)n3)cc2)CC1	0.826 µM	6.83 µM	6.46 µM	32.6 µM	1.65 µM	37.5 µM	1.72 µM	> 100 µM	2.24 µM	6.94 µM	0.547 µM	2.96 µM	2.94 µM	> 100 µM	1.64 µM	15.3 µM	1.52 µM	4.22 µM	0.987 µM	11.6 µM
Br[Se]c1ccccn1	–	33 µM	–	31.7 µM	–	35.5 µM	–	53.9 µM	–	32.9 µM	–	30.8 µM	–	72 µM	–	31.8 µM	–	30 µM	–	39.3 µM
CC(=O)Nc1cc2ccc(=O)oc2cc1Cl	–	> 100 µM	–	> 100 µM	–	> 100 µM	–	> 100 µM	–	> 100 µM	–	> 100 µM	–	> 100 µM	–	> 100 µM	–	> 100 µM	–	> 100 µM
O=C1CSC(=S)N1/N=C/c1ccc(Cl)c([N+](=O)[O-])c1	–	47.7 µM	–	62.8 µM	–	27.5 µM	–	> 100 µM	–	37.9 µM	–	> 100 µM	–	> 100 µM	–	54.3 µM	–	> 100 µM	–	31.9 µM
COCCn1cc(-c2nc(-c3cc4cccnc4[nH]3)cs2)c2cc(OC)ccc21	3.35 µM	35.1 µM	4.26 µM	9.81 µM	3.68 µM	97.4 µM	3.71 µM	> 81.2 µM	1.8 µM	7.66 µM	4.01 µM	24.7 µM	3.48 µM	> 27.3 µM	5.27 µM	> 100 µM	3.39 µM	42 µM	1.5 µM	10.8 µM
CC(C)(C)[Si](C)(C)OC1[C@@H](O[Si](C)(C)C(C)(C)C)[C@@H](CNC(=O)NC(=O)C(F)(F)F)O[C@H]1n1cnc2c(NC(=O)Nc3ccccc3)ncnc21 (some centres undefined)	6.12 µM	12.3 µM	7.19 µM	15 µM	4.28 µM	10.6 µM	4.33 µM	11.1 µM	6.81 µM	13.4 µM	6.03 µM	12.8 µM	8.16 µM	24.7 µM	5.52 µM	16.4 µM	6.74 µM	13.2 µM	8.77 µM	16.6 µM
CC(C)[C@@H]1NC(=O)[C@]2(C)CSC(=N2)c2ccnc(c2)CNC(=O)C[C@@H](/C=C/CCS)OC1=O	0.208 µM	0.588 µM	0.0376 µM	0.526 µM	0.173 µM	0.869 µM	0.242 µM	1.57 µM	0.718 µM	> 100 µM	0.717 µM	2.41 µM	0.637 µM	> 100 µM	0.111 µM	6.13 µM	0.0832 µM	> 65.5 µM	0.303 µM	> 31.4 µM
O=C1c2ccccc2C(=O)c2c(/C=C\N3CCCCC3)ccnc21	–	1.68 µM	–	3.22 µM	–	11.9 µM	–	15.1 µM	–	2.22 µM	–	6.06 µM	–	36 µM	–	0.289 µM	–	9.65 µM	–	1.31 µM
CCOc1ccc(NC2=CC(=O)C(=O)c3ccccc32)cc1	–	2.77 µM	–	3.04 µM	–	26 µM	–	15.8 µM	–	3.02 µM	–	10.9 µM	–	26.9 µM	–	3.19 µM	–	4.18 µM	–	3.93 µM
CC(=O)N[C@@H](Cc1ccc(OP(=O)(O)O)cc1)C(=O)N[C@H]1CCC(=O)N2CCC[C@@H](C(=O)Nc3cccc4ccccc34)N2C1=O	> 25 µM	> 25 µM	> 25 µM	> 25 µM	> 25 µM	> 25 µM	> 25 µM	> 25 µM	> 25 µM	> 25 µM	> 25 µM	> 25 µM	> 25 µM	> 25 µM	> 25 µM	> 25 µM	> 25 µM	> 25 µM	> 25 µM	> 25 µM
NC(=S)N/N=C1\c2cc(Cl)ccc2-c2c1cc(Cl)cc2[N+](=O)[O-]	9.35 µM	> 100 µM	6.56 µM	> 100 µM	12.1 µM	> 100 µM	10 µM	61.2 µM	3.41 µM	36.7 µM	3.84 µM	22.2 µM	4.76 µM	> 100 µM	7.28 µM	> 100 µM	6.16 µM	88.2 µM	3.86 µM	> 100 µM
